Literature values as cited in patent US20070166816A1, “Assay device that analyzes the absorption, metabolism, permeability and/or toxicity of a candidate compound” (Surface Logix, Inc., priority 2002, published 2007).

Key:
[1] = previously characterized in humans; qualitative grade
Caco-2 cells = settings: previously characterized in Caco-2 assays; qualitative grade

| SMILES | Absorbance in vivo [1] | Absorbance in vitro (Caco-2 cells) |
| --- | --- | --- |
| O=c1[nH]cc(F)c(=O)[nH]1 [5-Fluorouracil] | Low | Very High |
| NS(=O)(=O)c1cc2c(cc1Cl)N=CNS2(=O)=O [Chlorothiazide] | – | Low |
| COc1ccc2cc([C@H](C)C(=O)O)ccc2c1 [Naproxein] | High | High |

Next, values leading:

| Absorbance in vivo [1] | Absorbance in vitro (Caco-2 cells) | SMILES |
| --- | --- | --- |
| Moderate | – | NS(=O)(=O)c1cc(C(=O)O)c(NCc2ccco2)cc1Cl [Furosemide] |
| Very low | Low | OC[C@@H](O)[C@@H](O)[C@H](O)[C@H](O)CO [Mannitol-reference, Mannitol] |
| – | Moderate | CC(C)NCC(O)COc1cccc2ccccc12 (stereo not drawn) [Propranolol--reference, Propranolol] |
